According to patent publication US10526327B2, “Histone demethylase inhibitors” (CELGENE QUANTICEL RESEARCH, INC., priority 2013, dated 2020):

Molecular target: T1, Jarid1A (Homo sapiens, UniProt P29375)
T1 construct: purchased BPS Bioscience 50110
T1 sequence (P29375 1-1090): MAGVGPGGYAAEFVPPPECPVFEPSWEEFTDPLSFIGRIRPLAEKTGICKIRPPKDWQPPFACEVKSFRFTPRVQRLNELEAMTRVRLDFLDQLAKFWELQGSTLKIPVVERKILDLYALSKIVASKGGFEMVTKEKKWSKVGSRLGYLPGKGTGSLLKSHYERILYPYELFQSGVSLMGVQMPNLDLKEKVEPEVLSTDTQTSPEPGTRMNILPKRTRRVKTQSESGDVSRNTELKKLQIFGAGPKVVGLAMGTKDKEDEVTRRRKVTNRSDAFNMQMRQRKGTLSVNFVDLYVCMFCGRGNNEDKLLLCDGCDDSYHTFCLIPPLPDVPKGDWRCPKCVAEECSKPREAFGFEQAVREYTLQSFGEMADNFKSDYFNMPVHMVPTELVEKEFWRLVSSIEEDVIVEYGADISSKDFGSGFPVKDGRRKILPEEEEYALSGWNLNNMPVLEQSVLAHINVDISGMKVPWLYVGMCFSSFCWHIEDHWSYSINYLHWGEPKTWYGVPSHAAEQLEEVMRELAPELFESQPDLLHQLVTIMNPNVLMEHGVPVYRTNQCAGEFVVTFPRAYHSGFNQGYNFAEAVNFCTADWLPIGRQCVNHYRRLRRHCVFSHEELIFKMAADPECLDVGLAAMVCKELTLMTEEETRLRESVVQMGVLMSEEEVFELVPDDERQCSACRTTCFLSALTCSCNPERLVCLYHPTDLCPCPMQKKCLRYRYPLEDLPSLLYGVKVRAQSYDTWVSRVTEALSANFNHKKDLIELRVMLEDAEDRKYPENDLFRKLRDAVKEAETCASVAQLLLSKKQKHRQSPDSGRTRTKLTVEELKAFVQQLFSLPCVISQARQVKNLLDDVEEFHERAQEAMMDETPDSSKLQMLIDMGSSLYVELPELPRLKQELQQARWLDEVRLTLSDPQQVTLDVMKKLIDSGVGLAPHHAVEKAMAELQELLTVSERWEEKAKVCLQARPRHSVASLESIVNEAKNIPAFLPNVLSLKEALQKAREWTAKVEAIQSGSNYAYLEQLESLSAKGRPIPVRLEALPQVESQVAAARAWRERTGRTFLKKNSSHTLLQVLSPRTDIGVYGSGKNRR
Assay: Jarid1A in vitro enzyme inhibition assay (TR-FRET)
Assay type: biochemical
Excerpt: This assay determines the ability of a test compound to inhibit Jarid1A, Jarid1B, and JMJD2C demethylase activity. Baculovirus expressed Jarid1A (GenBank Accession #NM_001042603, AA1-1090) was purchased from BPS Bioscience (Cat#50110). Baculovirus expressed Jarid1B (GenBank Accession #NM_006618, AA 2-751) was purchased from BPS Bioscience (Cat #50121) or custom made by MolecularThroughput. Baculovirus expressed JMJD2C (GenBank Accession #BC143571, AA 2-372) was purchased from BPS Bioscience (Cat#50105).
The enzymatic assay of Jarid1A activity is based upon Time Resolved-Fluorescence Resonance Energy Transfer (TR-FRET) detection. The ability of test compounds to inhibit the activity of Jarid1A was determined in 384-well plate format under the following reaction conditions: 1 nM Jarid1A, 300 nM H3K4me3-biotin labeled peptide (Anaspec cat #64357), 2 μM alpha-ketoglutaric acid in assay buffer of 50 mM HEPES, pH7.3, 0.005% Brij35, 0.5 mM TCEP, 0.2 mg/ml BSA, 50 μM sodium L-ascorbate, and 2 μM ammonium iron(II) sulfate. Reaction product was determined quantitatively by TR-FRET after the addition of detection reagent Phycolink Streptavidin-allophycocyanin (Prozyme) and Europium-anti-mono-or di-methylated histone H3 lysine 4 (H3K4me1-2) antibody (PerkinElmer) in the presence of 5 mM EDTA in LANCE detection buffer (PerkinElmer) at a final concentration of 25 nM and 1 nM, respectively.
The assay reaction was initiated by the following: 2 μl of the mixture of 900 nM H3K4me3-biotin labeled peptide and 6 μM alpha-ketoglutaric acid with 2 μl of 11-point serial diluted inhibitor in 3% DMSO was added to each well of plate, followed by the addition of 2 μl of 3 nM Jarid1A to initiate the reaction. The reaction mixture was incubated at room temperature for 30 minutes, and terminated by the addition of 6 μl of 5 mM EDTA in LANCE detection buffer containing 50 nM Phycolink Streptavidin-allophycocyanin and 2 nM Europium-anti-H3K4me1-2 antibody. Plates were read by EnVisionMultilabel Reader in TR-FRET mode (excitation at 320 nm, emission at 615 nm and 665 nm) after 1 hour incubation at room temperature. A ratio was calculated (665/615) for each well and fitted to determine inhibition constant (IC50).

SMILES | IC50
O=C(C1CC1)N1CCC(n2cc(Oc3nc(O)c4ccncc4n3)cn2)CC1 [Example 92, cyclopropyl-[4-[4-(4-hydroxypyrido[3,4-d]pyrimidin-2-yl)oxypyrazol-1-yl]piperidin-1-yl]methanone] | ≤ 100 nM
CN(C)c1cccc(Oc2nc(O)c3ccncc3n2)c1 [Example 50, 2-[3-(dimethylamino)phenoxy]pyrido[3,4-d]pyrimidin-4-ol] | ≤ 100 nM
O=C(c1cc(F)cc(Oc2nc(O)c3ccncc3n2)c1)N1CCOCC1 [Example 60] | ≤ 100 nM
CCCOc1nc(O)c2ccncc2n1 [Example 7, 2-propoxy-3H-pyrido[3,4-d]pyrimidin-4-one] | ≤ 100 nM
Oc1nc(Oc2cnn(C3CCCC3)c2)nc2cnccc12 [Example 56, 2-[(1-cyclopentylpyrazol-4-yl)oxy]pyrido[3,4-d]pyrimidin-4-ol] | ≤ 100 nM
Oc1nc(Oc2cnn(Cc3ccccc3F)c2)nc2cnccc12 [Example 87, 2-[1-(2-fluorobenzyl)pyrazol-4-yl]oxypyrido[3,4-d]pyrimidin-4-ol] | ≤ 100 nM
Oc1nc(OCCOc2ccccc2)nc2cnccc12 [Example 10, 2-(2-phenoxyethoxy)-3H-pyrido[3,4-d]pyrimidin-4-one] | ≤ 100 nM
Oc1nc(Oc2ccnc(N3CCOCC3)c2)nc2cnccc12 [Example 97, 2-(2-morpholin-4-ylpyridin-4-yl)oxypyrido[3,4-d]pyrimidin-4-ol] | ≤ 100 nM
COc1ccc(Oc2nc(O)c3ccncc3n2)cc1OC [Example 38, 2-(3,4-dimethoxyphenoxy)pyrido[3,4-d]pyrimidin-4-ol] | ≤ 100 nM
CCn1cc(Oc2nc(O)c3ccncc3n2)cn1 [Example 62, 2-[(1-ethyl-1H-pyrazol-4-yl)oxy]pyrido[3,4-d]pyrimidin-4-ol] | ≤ 100 nM
CCn1ncc2ccc(Oc3nc(O)c4ccnc(-c5cn(C)cn5)c4n3)cc21 [Example 84, 2-(1-ethylindazol-6-yl)oxy-8-(1-methylimidazol-4-yl)pyrido[3,4-d]pyrimidin-4-ol] | ≤ 100 nM
